PMC7481439 (Frontiers in Pediatrics, 2020)
Marks after values point to notes of the source that are not given here.

How the values were obtained:
[1] = volume of distribution, listed under physico-chemical data; source not stated for Vd; cited from earlier work
[2] = parameters: method as in PMID 18048412; details: Drug Bank online database; cited from earlier work
[3] = Table 2; Drug Bank online database; cited from earlier work
[4] = Spontaneous drug degradation (T2 control sample analysed at 24 h); details: whole blood control sample drawn at 2 min, kept in EDTA tube at the temperature of the circuits until 24 h; difference in drug recovery between T2 and T2-24; average
[5] = adult centrifugal-based circuit, volume 800 ml, n = 3, ref Lemaitre ([39]); cited from earlier work
[6] = neonatal centrifugal-based circuit, volume 200 ml, recovery at 180 min, n = 2; ref Wildschut ([18]); cited from earlier work
[7] = adult centrifugal-based circuit, volume 670 ml, n = 4, ref Shekar ([22]); cited from earlier work
[8] = In vitro closed-loop ECMO circuit model: drug recovery / sequestration

| SMILES | Vd [1] [L/kg] | LogP [2] | PB % [3] [%] | Spontaneous degradation [4] [%] | Mean drug recovery at 24 h, Quadrox a (Lemaitre) [5] [%] | Mean drug recovery, Medos n [6] | Mean drug recovery at 24 h, Quadrox a (Shekar) [7] [%] | Decrease of drug level after 24 h, ILA active ([8]; ILA active circuit, whole blood primed, 24-h exposure) [%] | Mean drug recovery after 24 h of circulation, r-ML ([8]; MiniLung (infant) circuit, whole blood primed, 700 ml/min, 24 h, dose VOR 40 mg, VAN 54 mg, expected level VOR 117.1, VAN 177.1 mg/L, corrected for spontaneous degradation, plasma, LC-MS/MS (VOR) or immune-assay (VAN), mean (±SD), n = 2 circuits, SD) | Mean drug recovery after 24 h of circulation, r-MLP ([8]; MiniLung petite (neonatal) circuit, whole blood primed, 500 ml/min, 24 h, dose VOR 35 mg, VAN 45 mg, expected level VOR 140, VAN 180 mg/L, corrected for spontaneous degradation, plasma, LC-MS/MS (VOR) or immune-assay (VAN), mean (±SD), n = 3 circuits, SD) | Decrease of drug level after 24 h, XLung ([8]; XLung circuit, whole blood primed, 24-h exposure) [%] | Mean drug recovery after 24 h of circulation, r-XL ([8]; Xlung (adult) circuit, whole blood primed, […], 24 h, dose VOR 68 mg, VAN 91.8 mg, expected level VOR 143.2, VAN 193.7 mg/L, corrected for spontaneous degradation, plasma, LC-MS/MS (VOR) or immune-assay (VAN), mean (±SD), n = 2 circuits, SD) | Mean drug recovery at 24 h, ML ([8]; current experiment, MiniLung circuit, whole blood primed, volume 310 ml, 24 h, n = 2) [%] | Mean drug recovery at 24 h, MLP ([8]; current experiment, MiniLung petite circuit, whole blood primed, volume 250 ml, 24 h, n = 3) [%] | Mean drug recovery at 24 h, Xlung ([8]; current experiment, Xlung circuit, whole blood primed, volume 480 ml, 24 h, n = 2) [%] | Mean drug recovery at 24 h, iLA ([8]; current experiment, iLAActivve circuit, whole blood primed, volume 400 ml, 24 h, n = 2) [%] | Mean drug recovery after 24 h of circulation, r-iLA ([8]; iLAActivve iLA (pediatric) circuit, whole blood primed, […], 24 h, dose VOR 52.5 mg, VAN 67.5 mg, expected level VOR 134.7, VAN 173.2 mg/L, corrected for spontaneous degradation, plasma, LC-MS/MS (VOR) or immune-assay (VAN), mean (±SD), n = 2 circuits) | Mean percentage of drug recovery at 24 h ([8]; mean over all nine whole-blood primed circuits (MLP, ML, iLA, XLung), single bolus, pre-membrane (P2) plasma samples, 24 h, corrected for average spontaneous degradation, LC-MS/MS (voriconazole), immune-assay Architect (vancomycin), samples in triplicate) [%] | Decrease of drug level after 24 h, minilung ([8]; minilung circuit, whole blood primed, 24-h exposure) [%] |
| --- | --- | --- | --- | --- | --- | --- | --- | --- | --- | --- | --- | --- | --- | --- | --- | --- | --- | --- | --- |
| C[C@@H](c1ncncc1F)[C@](O)(Cn1cncn1)c1ccc(F)cc1F [voriconazole] | 4.6 | 1.8 | 58 |  |  |  |  |  |  |  |  |  |  |  |  |  |  |  |  |
| CN[C@H](CC(C)C)C(=O)N[C@H]1C(=O)N[C@@H](CC(N)=O)C(=O)N[C@H]2C(=O)N[C@H]3C(=O)N[C@H](C(=O)N[C@H](C(=O)O)c4cc(O)cc(O)c4-c4cc3ccc4O)[C@H](O)c3ccc(c(Cl)c3)Oc3cc2cc(c3O[C@@H]2O[C@H](CO)[C@@H](O)[C@H](O)[C@H]2O[C@H]2C[C@](C)(N)[C@H](O)[C@H](C)O2)Oc2ccc(cc2Cl)[C@H]1O [vancomycin] | 0.4 to 1 |  | 50 | 2.4 | 100 | 67.1^* % | 90 | 38 | 133.2 (±49.7) mg/L | 112 (±31.6) mg/L | 50 | 96.5 (±13.5) mg/L | 73 | 60 | 48 | 60 | 108.5 (±4,4) mg/L | 62 | 25 |
